# Data as given in ChEMBL document CHEMBL1201862, “PubChem BioAssay data set” (2004).
# Several values for one entry are separate records, joined by “and”; a condition that tells them apart may be missing. Identical values can stand only once.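 Exposure lasted 48 hours, with cells grown in 96-well plates and compounds tested at five concentrations. GI50 = concentration required for 50% inhibition of growth.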 Activity calls are given as the source filed them. Cut-off read from the data, not from the text of the source: active = GI50 up to about 1.1 µM and inactive = higher. Square brackets hold non-standard residues; d marks the D form. Peptide text beside a SMILES is read from it. pGlu = O=C1CC[C@@H](C(=O)O)N1; Thz = O=C(O)[C@@H]1CSCN1
# Legend:
# Assay in all cases: growth of human tumour cells (NCI), 48 h
# [1] = system: DLD-1
# [2] = system: KM-20L2
# [3] = system: M19-MEL
# [4] = system: SNB-78
# [5] = system: XF498
# [6] = system: MDA-N
# [7] = system: DMS-273
# [8] = system: RXF 631
# [9] = system: DMS-114
Structure (SMILES),GI50 [1],GI50 [2],GI50 [6],also measured
CCc1nc(N)nc(N)c1-c1ccc(Cl)c(N=[N+]=[N-])c1,5.47 µM (inactive),12.1 µM (inactive),–,GI50 [3]: 11.9 µM (inactive); GI50 [4]: 18.2 µM (inactive); GI50 [5]: 31 µM (inactive)
C[C@]12OC(=O)[C@]3(O)CC[C@H]4[C@@H](C[C@@H](O)[C@@]5(Cl)CC=CC(=O)[C@]45C)[C@]45OCC6C(=O)O[C@@H]1C[C@@]6(C)[C@H](C4=O)[C@@]32O5 (stereo partly drawn),–,–,1.16 µM (inactive),–
COc1ccc(OC)c2c(C(=O)O)c(C(C)c3ccccc3)ccc12 (stereo not drawn),> 100 µM (inactive),> 100 µM (inactive),–,GI50 [7]: > 100 µM (inactive); GI50 [3]: > 100 µM (inactive); GI50 [8]: > 100 µM (inactive)
O=c1[nH]ccc(CNC23CC4CC(CC(C4)C2)C3)c1O,> 100 µM (inactive),> 100 µM (inactive),–,GI50 [7]: > 100 µM (inactive); GI50 [3]: > 100 µM (inactive); GI50 [4]: > 100 µM (inactive); GI50 [5]: > 100 µM (inactive)
CC(C)(Oc1ccc(C(=O)c2ccc(Cl)cc2)cc1Cl)C(=O)N1CCN(c2ccccc2)CC1,> 100 µM (inactive),> 100 µM (inactive),–,GI50 [9]: 45.7 µM (inactive); GI50 [7]: 55.7 µM (inactive); GI50 [3]: > 100 µM (inactive); GI50 [4]: > 100 µM (inactive); GI50 [5]: 52.1 µM (inactive)
COc1cc2c(c(OC)c1OC)-c1ccc(SC)c(=O)cc1[C@@H](NC(=O)c1ccc(Cl)cc1)CC2,< 0.01 µM (active),< 0.01 µM (active),–,GI50 [9]: < 0.01 µM (active); GI50 [7]: < 0.01 µM (active); GI50 [3]: < 0.01 µM (active); GI50 [8]: < 0.01 µM (active)
CC(C)c1cccc(C(C)C)c1NC(=O)/C(Cc1nc2ccc(Cl)cc2nc1O)=N\NC(=O)C[N+](C)(C)C,> 100 µM (inactive),> 100 µM (inactive),–,GI50 [9]: > 100 µM (inactive); GI50 [3]: > 100 µM (inactive); GI50 [8]: > 100 µM (inactive)
O=C(NNC(=S)Nc1ccccc1)C12CC3CC(CC(C3)C1)C2,–,–,26.8 µM (inactive),–
COc1cc(C(=O)OC2CC(C)=CC[C@@]3(C)CC[C@](O)(C(C)C)C23)ccc1O (stereo partly drawn),–,–,18.3 µM (inactive),–
Cc1cc(C)c(O)c(CN2CCN(C(C)C)CCN(C(C)C)CC2)c1,–,–,20.6 µM (inactive),–
CC(N)C(=O)OCN1C(=O)C2C3C=CC(C2C1=O)C1C2C(=O)N(COC(=O)C(C)N)C(=O)C2C31 (stereo not drawn),24.5 µM (inactive),28.2 µM (inactive),–,GI50 [9]: 17 µM (inactive); GI50 [7]: 18.5 µM (inactive); GI50 [3]: 23.6 µM (inactive); GI50 [4]: 57 µM (inactive); GI50 [5]: 19 µM (inactive)
C=C(Cl)C(Cl)(CBr)CCC(Br)C(C)(C)Cl (stereo not drawn),–,–,2.28 µM (inactive) and 964 nM (active) and 8.77 µM (inactive),–
COc1cccc(N2N=C3c4ccccc4-n4c(nc5ccccc54)C3C2N)c1 (stereo not drawn),–,–,> 100 µM (inactive),–
O=C(c1ccccc1)c1ccc(N2C(=O)/C(=C/c3cccc(Oc4ccccc4)c3)N=C2c2ccccc2)c(N2C(=O)/C(=C/c3cccc(Oc4ccccc4)c3)N=C2c2ccccc2)c1,–,–,5.09 µM (inactive),–
O=C(CCCl)NN=C1NCCN1,–,–,> 100 µM (inactive),–
O=C1/C(=C\c2ccc([N+](=O)[O-])o2)SC2NC(COc3ccc(Cl)cc3)=NN12 (stereo not drawn),–,–,3.48 µM (inactive),–
O=C(Nc1nnc(-c2c(Cl)c(Cl)c(Cl)c(Cl)c2-c2nc3cc(C(=O)c4ccccc4)ccc3[nH]2)o1)c1ccccc1,–,–,3.19 µM (inactive),–
CCOP(=O)(OCC)/C(C#N)=C/c1ncc[nH]1,–,–,> 100 µM (inactive),–
CN(C(=O)Nc1ccc(Cl)c(Cl)c1)C1CCCC[C@@H]1N1CCCC1 (stereo partly drawn),–,–,34 µM (inactive),–
COc1ccc(-c2oc3cc(OC)c(OC)c(O)c3c(=O)c2OC)cc1,–,–,> 100 µM (inactive),–
Cc1ccc(C(=O)NC2CCCCC2)cc1/N=N/N(C)C,> 100 µM (inactive),> 100 µM (inactive),–,GI50 [7]: > 100 µM (inactive); GI50 [3]: > 100 µM (inactive); GI50 [4]: > 100 µM (inactive)

Structure (SMILES),GI50 [1],GI50 [2],GI50 [6],also measured
COc1ccc2cc1Oc1ccc(cc1)C[C@H]1c3cc(c(OC)cc3CCN1C)Oc1c(OC)c(OC)cc3c1[C@H](C2)N(C)CC3 [FANCHININ],9.29 µM (inactive),3.8 µM (inactive),–,GI50 [9]: 7.36 µM (inactive); GI50 [7]: 6.31 µM (inactive); GI50 [4]: 9.44 µM (inactive); GI50 [5]: 10.6 µM (inactive)
COC(=O)/N=C(\NC(=O)OC)Nc1ccc(Oc2ccccc2)cc1NC=O,0.536 µM (active),0.242 µM (active),–,GI50 [9]: 0.253 µM (active); GI50 [3]: 0.312 µM (active); GI50 [5]: 0.369 µM (active)
C[C@]12CC[C@H](O)CC1=CC[C@@H]1[C@@H]2CC[C@]2(C)C(=N/O)/C(=C/c3ccc([N+](=O)[O-])cc3)C[C@@H]12,–,–,6.93 µM (inactive),–
O=C(O)/C(Cl)=C(\Cl)C(=O)Nc1ccc(Cl)c(Cl)c1Cl,24.5 µM (inactive),23.2 µM (inactive),–,GI50 [9]: 20.8 µM (inactive); GI50 [7]: 21 µM (inactive); GI50 [3]: 16.8 µM (inactive); GI50 [4]: 28.4 µM (inactive)
C=C1C2CCCC1C1(S(C)(=O)=O)CCCCC21O (stereo not drawn),> 100 µM (inactive),> 100 µM (inactive),–,GI50 [9]: > 100 µM (inactive); GI50 [7]: > 100 µM (inactive); GI50 [3]: > 100 µM (inactive); GI50 [4]: > 100 µM (inactive)
CSc1nc(SC)c2c(C)cn(C3OC(C)C(O)C(O)C3O)c2n1 (stereo not drawn),–,–,67.6 µM (inactive),–
O=C1C=C2C(=NC34CCCCC3C(c3ccccc3)C3=C(c5ccccc5CC3)N24)c2ccccc21 (stereo not drawn),–,–,> 10 µM (inactive),–
COC(=O)[C@@]1(NC(=O)C(CC(=O)OC(C)(C)C)NC(=O)OC(C)(C)C)C[C@H]1C (stereo partly drawn),–,–,> 100 µM (inactive),–
CCn1c(-c2ccccc2)nc2c1C(=O)c1ccccc1C2=O,–,–,18.8 µM (inactive),–
CCN(CC)CCNc1ccc2nc(C)n3c4ccc(O)cc4c(=O)c1c23,0.371 µM (active),–,–,GI50 [9]: 1.42 µM (inactive); GI50 [7]: 0.37 µM (active); GI50 [3]: 3.49 µM (inactive); GI50 [8]: 0.331 µM (active)
CCOC(=O)NN(C(=O)OCC)c1ccc(/N=N/c2ccc(OC)cc2)n1C,–,–,19.7 µM (inactive),–
CCOc1cc(CCNC)c2c(ccc3ccc(OC)c(O)c32)c1OC,–,–,2.49 µM (inactive),–
COc1ccc2c(c1)/C(=C\c1c(Cl)nc3sc(C)cn13)C(=O)N2,–,–,0.418 µM (active),–
Cc1c2c(c(C)n1-c1ccccc1)C(=O)N(CCSC(=N)N)C2=O,–,–,> 100 µM (inactive),–
CC(C)C1(NC(=O)C2CC3c4cccc5[nH]cc(c45)CC3N(C)C2)OC2(O)C3CCCN3C(=O)C(Cc3ccccc3)N2C1=O (stereo not drawn),–,–,22.3 µM (inactive),–
CCC(CS(=O)(=O)O)[N+](=O)[O-] (stereo not drawn),–,–,> 100 µM (inactive),–
CC1(C)CCC[C@@]2(C)C1CC[C@@]1(CO)O[C@H](C3=CC(=O)OC3O)C[C@H]12 (stereo partly drawn),–,–,12.6 µM (inactive),–
O=C(O)Cc1ccc(-n2nnc3c(=O)[nH][nH]c(=O)c32)cc1,–,–,> 100 µM (inactive),–
CC(=O)NNc1nc(C)c(C(/C=C/c2ccc([N+](=O)[O-])cc2)=N/N)s1,–,–,> 100 µM (inactive),–
COC(=O)C1=C(C(=O)OC)N(c2ccncc2)C(c2ccco2)=CC1c1ccccc1[N+](=O)[O-] (stereo not drawn),–,–,2.71 µM (inactive),–
CCN(CC)CCNc1ccc2nnn3c4ccc(O)cc4c(=O)c1c23,2.09 µM (inactive),4.37 µM (inactive),4.09 µM (inactive),GI50 [9]: 7.29 µM (inactive); GI50 [4]: 5.89 µM (inactive)

Structure (SMILES),GI50 [1],GI50 [2],GI50 [6],also measured
O=c1c2cc([N+](=O)[O-])ccc2[nH]n1Cc1ccccc1Cl,–,–,> 100 µM (inactive),–
CCO/C(=N/S(=O)(=O)C(F)(F)F)N(C(C)C)C(C)C,–,–,> 100 µM (inactive),–
N#Cc1nc(-c2cc([N+](=O)[O-])cc([N+](=O)[O-])c2)oc1N,–,–,> 10 µM (inactive),–
O=C1CC[C@@H](C(=O)N2CSC[C@H]2C(=O)O)N1 [PIDOTIMOD] ([pGlu]-[Thz]-OH),–,–,> 100 µM (inactive),–
O=C(NCCc1n[nH]c2c1C(=O)C=C(Nc1ccccc1)C2=O)OCc1ccccc1,–,–,> 100 µM (inactive),–
OCCCCCCOc1ccc(-c2cc(-c3ccccn3)nc(-c3ccccn3)c2)cc1,0.169 µM (active),0.0897 µM (active),0.526 µM (active),GI50 [9]: 0.207 µM (active); GI50 [7]: 0.211 µM (active); GI50 [3]: 0.253 µM (active); GI50 [4]: 0.524 µM (active); GI50 [5]: 1.51 µM (inactive)
CCC1OCCN1C(C)C (stereo not drawn),92 µM (inactive),> 100 µM (inactive),–,GI50 [9]: 85.9 µM (inactive); GI50 [7]: 69.2 µM (inactive); GI50 [3]: 71.4 µM (inactive); GI50 [4]: > 100 µM (inactive)
C[C@]12Cc3cn[nH]c3C(=O)C1CC[C@@H]1C2CC[C@@]2(C)C1CC[C@@H]2O (stereo partly drawn),–,> 100 µM (inactive),–,GI50 [9]: > 100 µM (inactive); GI50 [7]: > 100 µM (inactive); GI50 [4]: > 100 µM (inactive); GI50 [5]: > 100 µM (inactive)
COc1cc(Br)c(CC2C3=C(CCN2C(=O)C2CCC2)CC2(CC3)OCCO2)cc1O (stereo not drawn),–,–,34.4 µM (inactive),–
NCCCNCCCCN1CC1,–,–,3.63 µM (inactive),–
CC1CC2C3CCC4=CC(=O)C=CC4(C)C3(F)C(O)CC2(C)C1(O)C(=O)CO.Cc1cc(NS(=O)(=O)c2ccc(/N=N\c3cc(/N=N/c4ccc(S(=O)(=O)Nc5cc(C)nc(C)n5)cc4)c(OC(=O)C(Cl)Cl)c4cccc(NC(=O)C(Cl)Cl)c34)cc2)nc(C)n1,18 µM (inactive),25.6 µM (inactive),–,GI50 [9]: 27.5 µM (inactive); GI50 [7]: 21.5 µM (inactive); GI50 [3]: 30.8 µM (inactive); GI50 [4]: 33.1 µM (inactive)
COC1C(O)C(C)OC(OC2C(Oc3cccc4c(O)c5c(=O)oc6ccc(C)c7c(=O)oc(c34)c5c67)OC(C)C3O[C@H](c4ccccc4)OC32)C1O (stereo partly drawn),0.0456 µM (active),0.055 µM (active),0.372 µM (active),GI50 [9]: 0.288 µM (active); GI50 [7]: 0.0206 µM (active); GI50 [3]: 0.156 µM (active); GI50 [8]: 0.0314 µM (active); GI50 [4]: 0.875 µM (active)
Sc1ncnc2c1ncn2C1CCCO1 (stereo not drawn),89.9 µM (inactive),> 100 µM (inactive),–,GI50 [9]: 65.8 µM (inactive); GI50 [7]: 76.2 µM (inactive)
O=C(O)C[C@@H]1[C@@H](O)[C@@H](O)CN2C(=O)c3ccccc3[C@H]12,–,–,> 100 µM (inactive),–
CCC(=O)O[C@H]1CC[C@H]2[C@@H]3CCC4=C/C(=N/OC(=O)c5cccc6cc7ccccc7nc56)CC[C@]4(C)[C@H]3CC[C@]12C,–,–,51.5 µM (inactive),–
COC(=O)c1ccc(C)cc1C1CN=NC12Cc1cccc(C)c1C2=O (stereo not drawn),–,–,26.2 µM (inactive),–
CCCCCC[C@H]([C@H](C)O)n1cnc2c(N)ncnc21,–,–,> 100 µM (inactive),–
CSc1c(C(=O)Nc2ccc(Cl)cc2)c(N)n(N)c(=O)c1C#N,–,–,> 100 µM (inactive),–
CCCCCCCCCCCCCCCCCCOCC1(COP(=O)([O-])OCC[N+](C)(C)C)CCCO1 (stereo not drawn),3.65 µM (inactive),3.26 µM (inactive),–,GI50 [9]: 5.16 µM (inactive); GI50 [7]: 1.75 µM (inactive); GI50 [3]: 2.99 µM (inactive); GI50 [4]: 8.17 µM (inactive); GI50 [5]: 7.64 µM (inactive)
